In US20240174723A1, “STAPLED ANTIMICROBIAL PEPTIDES (STAMPS) AND USES THEREOF” (Lytica Therapeutics, Inc., priority 2021, published 2024):
≈ marks a conversion by molar mass, not a printed value. Positions of bridges follow the written chain, without caps; N, C: chain ends. Non-standard residues stand in square brackets, D forms with d. Residues, ends and D or L forms follow the SMILES beside them. S5 = C=CCCC[C@](C)(N)C(=O)O

Columns and labels:
[1] = test system: E. coli; format: cell-based, Escherichia coli
Summary of the method: (§1)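 StAMP peptides were tested by CLSI-adapted broth microdilution in MHB or cation-adjusted MHB II, final inoculum 5×10^5 CFU/ml from log-phase cultures. After 20-24 h at 37° C, MIC was taken as the lowest peptide concentration without visible growth.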

[2] = test system: A. baumannii; format: cell-based, Acinetobacter baumannii
Summary of the method: as §1

[3] = test system: P. aeruginosa; format: cell-based, Pseudomonas aeruginosa
Summary of the method: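 Broth microdilution adapted from CLSI in MHB or cation-adjusted MHB; log-phase P. aeruginosa at 5×10^5 CFU/ml final with serially diluted stapled peptides. Incubated 20-24 h at 37 °C; MIC is the lowest concentration without visible growth.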

[4] = test system: K. pneumoniae; format: cell-based, Klebsiella pneumoniae
Summary of the method: as §1

[5] = test system: S. aureus; format: cell-based, Staphylococcus aureus
Summary of the method: as §1

[6] = in vitro; format: cell-based; conditions: human
Summary of the method: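 RPTEC or HepG2 cells plated overnight, given fresh media, then serial StAMP dilutions (from 5 mg/mL water stock) or vehicle at 37 °C. Cytotoxicity read as LDH release into media, absorbance 490 nm; renal toxicity after 90 min, liver toxicity after 48 h incubation.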

[7] = in vitro; format: cell-based; conditions: human, Inhibitory Concentration at 50% Cytotoxicity (IC50) Human Liver Cells (HepG2)
Summary of the method: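 HepG2 cells in EMEM with 10% FBS, allowed 4 h to attach, then exposed to serial dilutions of StAMPs (from a 5 mg/mL water stock) or vehicle. After 48 h at 37 °C, viability read by CellTiter-Glo luminescence.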

Row | Structure (SMILES) | Minimum Inhibitory Concentration (MIC) E. coli [1] [µg/mL] | Minimum Inhibitory Concentration (MIC) A. baumannii [2] [µg/mL] | Minimum Inhibitory Concentration (MIC) P. aeruginosa [3] [µg/mL] | Minimum Inhibitory Concentration (MIC) K. pneumoniae [4] [µg/mL] | Minimum Inhibitory Concentration (MIC) S. aureus [5] [µg/mL] | IC50 at 90 min [6] [µg/mL] | IC50 at 48 hours [7] [µg/mL]
1 | CC(C)[C@@H]1NC(=O)[C@@](C)(NC(=O)[C@H](C)NC(=O)[C@H](CCCCN)NC(=O)CNC(=O)[C@H](Cc2ccccc2)NC(=O)[C@H](CCCCN)NC(=O)[C@H](CCCCN)NC(=O)[C@H](CCCCN)NC(=O)[C@H](Cc2c[nH]c3ccccc23)NC(=O)[C@H](Cc2c[nH]cn2)NC(=O)[C@]2(C)CCCC=CCCC[C@](C)(NC(=O)CN)C(=O)NCC(=O)N[C@@H](CCCCN)C(=O)N[C@@H](Cc3ccccc3)C(=O)N2)CCCC=CCCC[C@@](C)(C(=O)N[C@@H](C)C(=O)N[C@@H](CCCCN)C(=O)N[C@@H](CCCCN)C(N)=O)NC(=O)[C@H](CCC(=O)O)NC(=O)CNC1=O [compound 61] (H-G[S5]GKF[S5]HWKKKFGKA[S5]VGE[S5]AKK-NH2; staple 2-6, 16-20) | 8 | 4 | 8 | 64 | >64 | 150 (≈ 57 µM) | > 200
2 | CC(C)[C@@H]1NC(=O)[C@H](C(C)C)NC(=O)[C@@](C)(NC(=O)[C@H](C)NC(=O)[C@H](CCCCN)NC(=O)CNC(=O)[C@H](Cc2ccccc2)NC(=O)[C@H](CCCCN)NC(=O)[C@H](CCCCN)NC(=O)[C@H](CCCCN)NC(=O)[C@H](CO)NC(=O)[C@H](CCCCN)NC(=O)[C@]2(C)CCCC=CCCC[C@](C)(NC(=O)CN)C(=O)NCC(=O)N[C@@H](CCCCN)C(=O)N[C@@H](Cc3ccccc3)C(=O)N2)CCCC=CCCC[C@@](C)(C(=O)N[C@@H](C)C(=O)N[C@@H](CCCCN)C(=O)N[C@@H](CCCCN)C(N)=O)NC(=O)[C@H](CCC(=O)O)NC1=O [compound 19] (H-G[S5]GKF[S5]KSKKKFGKA[S5]VVE[S5]AKK-NH2; staple 2-6, 16-20) | 2 | 2 | 4 | 4 | >64 | 92 (≈ 35.9 µM) | 95 (≈ 37 µM)
3 | CC(C)[C@@H]1NC(=O)[C@@](C)(NC(=O)[C@H](C)NC(=O)[C@H](CCCCN)NC(=O)CNC(=O)[C@H](Cc2ccccc2)NC(=O)[C@H](CCCCN)NC(=O)[C@H](CCCCN)NC(=O)[C@H](CCCCN)NC(=O)[C@H](CO)NC(=O)[C@H](Cc2c[nH]cn2)NC(=O)[C@]2(C)CCCC=CCCC[C@](C)(NC(=O)CN)C(=O)NCC(=O)N[C@@H](Cc3c[nH]c4ccccc34)C(=O)N[C@@H](Cc3ccccc3)C(=O)N2)CCCC=CCCC[C@@](C)(C(=O)N[C@@H](C)C(=O)N[C@@H](CCCCN)C(=O)N[C@@H](CCCCN)C(N)=O)NC(=O)[C@H](CCC(=O)O)NC(=O)CNC1=O [compound 58] (H-G[S5]GWF[S5]HSKKKFGKA[S5]VGE[S5]AKK-NH2; staple 2-6, 16-20) | 16 | 8 | 32 | >64 | >64 | > 200 | > 200
